Measurements from US20030186954A1, “Estriol to treat and prevent cardiovascular disease” (priority 2002, published 2003).
Read-outs that look alike come from different tables or passages of the source.

Columns and labels:
[1] = Levels of estriol in saliva of human volunteers treated with skin cream; assay type: in vivo; details: topical; for concentration at 24 h: human volunteers, 24 hours after second application, read-out: Salivary concentration of estriol (group average)
Protocol: Four human volunteers applied one of three estriol skin cream formulations in a base of polyethylene glycol, sorbitol, and water. The formulations were as described above in Example 3, except that one formulation contained 0.1% estriol, a second formulation contained 0.5% estriol, and a third contained 1% estriol. Each volunteer applied […] of one of the formulations daily for 2 days for a total applied dosage of 4 mg, 20 mg, and 40 mg of estriol, respectively.
Concentrations of estriol in saliva was measured 24 hours after the second application of the estriol cream formulations. The group that applied the 0.1% estriol averaged a salivary concentration of about 300 pg/ml. The 0.5% group averaged about 1500 pg/ml. The 1%group averaged about 4000 pg/ml.
In addition, salivary concentration of estriol was measured ten minutes following the application of 20 mg of estriol in skin cream. A concentration of 10 ng/ml was found, indicating rapid absorption.

[2] = tested on: coronary arteries of ovariectomized female rhesus monkeys (serotonin + U46619 induced vasospasm); experiment: Drug-induced (serotonin + U46619) coronary vasospasm in ovariectomized rhesus monkeys, angiography; assay type: in vivo, rhesus monkeys (Macaca mulatta); details: for Monkeys suffering a vasospasm during the study: estriol cream treated ovariectomized monkeys, 12 step intracoronary serotonin+U46619 injection protocol
Protocol: The monkeys were entered into the study no less than 3 months after ovariectomy.
Angiography at the Dotter Institute, after overnight fasting, began with preanesthesia with ketamine (10 mg/kg body weight intramuscular), intubation with an endotracheal tube and a light surgical plane of anesthesia with isoflurane (induced at 1.5% to 3% maintained at 0.75% to 1.25%), vaporized with 33% nitrous oxide and 67% oxygen, or with 100% oxygen. Bilateral femoral intraarterial 3F catheters allowed for coronary catheterization and continuous recording of systemic arterial blood pressure and heart rate, which were maintained close to the initial anesthetic value for each monkey. Intravenous heparin (1,000 U) was injected, and up to 120 ml of pyruvated Ringer's solution and 0 to 50 ml of dextran solution were used (as needed) to maintain diastolic blood pressure ≧60 mm Hg. A heating pad assisted in maintenance of a body temperature decrease ≦2° C. of preanesthesia body temperature (monitored by rectal thermometer). An electrocardiogram (ECG) recorded on a Gould eight-channel recorder, cutaneous arterial oxygen saturation, respiratory rate and end-tidal CO2 were also monitored.
Entire experiments were recorded on videotape (with episodic fluoroscopic imaging and continuous voice annotation) to permit computerized quantitative coronary angiography. […]
Placement of the 3F catheter (except as noted later) was adjusted to provide sufficient filling with radio-opaque contrast medium, limited reflux and isolation of a branch of the coronary arterial tree. […] Fluoroscopic images were recorded on film using an OEC model 9800 digital x-ray system with fluoroscopic C-arm, digitally recorded, and evaluated in subsequent analysis. All procedures including a brief 0.2 ml injection of Hexabrix for optimal quantitative angiography were recorded on videotape for subsequent computer analysis. […]
After 4 weeks of daily treatment with 0.2 mg/kg of the estriol topical cream, the monkeys were studied by coronary catheterization, and reactivity was assessed by injection of serotonin (100 μM) and U46619 (1 μM).

[3] = Steroid levels in plasma and urine of estriol cream treated monkeys; details: urine collected just prior to cardiac catheterization after 4 weeks daily 0.3% estriol topical cream; n = 5

With `C[C@]12CC[C@@H]3c4ccc(O)cc4CC[C@H]3[C@@H]1C[C@@H](O)[C@@H]2O` [Estriol] as the molecule, how does the concentration at 24 h ([1]; 0.1% estriol skin cream, 4 ml daily for 2 days (4 mg)) read?
Its concentration at 24 h is ~0.3 ng/mL.

What about the concentration at 24 h ([1]; 0.5% estriol skin cream, 4 ml daily for 2 days (20 mg)) of the same molecule?
The concentration at 24 h was ~1.5 ng/mL.

And the concentration at 24 h ([1]; 1% estriol skin cream, 4 ml daily for 2 days (40 mg))?
The concentration at 24 h was ~4 ng/mL.

What about the concentration at 10 min ([1]; human, ten minutes following application of 20 mg of estriol in skin cream, read-out: Salivary concentration of estriol) of the same molecule?
The concentration at 10 min was 10 ng/mL.

And the “Monkeys suffering a vasospasm during the study” value [2]?
Its value is “None of the monkeys”.

And the “Monkeys suffering a vasospasm during the study” value ([2]; listed as E3)?
The value was “none of the E3 treated monkeys showed a vasospasm”.

What about the “Vasospasm criteria met (incidence)” value ([2]; ovariectomized monkeys, 4 weeks daily 0.3% estriol topical cream (0.2 mg/kg), intracoronary serotonin 100 μM + U46619 1 μM, criteria <33% of control diameter for >5 minutes) of the same molecule?
The value was 0/6.

What about the “E3 absorbed, urine (total)” value [3] of the same molecule?
The value was “***2412 +/− 316 (n = 5) ng/ml”.
